Series [1] concerns Human immunodeficiency virus 1. The series can be described thus: Antiviral activity against HIV 1 NL4-3 infected in human MT2 cells assessed as inhibition of replication by XTT assay. In kind it is functional, organism-based. The settings on record: Human immunodeficiency virus 1, NL4-3, MT2. On the technique in general: Tetrazolium assays rely on reduction of a dye to a coloured formazan, in cell work by metabolically active cells.

The test system of series [2] is Human immunodeficiency virus 1. Description: Antiviral activity against recombinant HIV 1 expressing luciferase and envelope glycoprotein of HIV-1 YU-2 infected in Cf2Th-CCR5 cells assessed as inhibition of viral infection by measuring luciferase activity. The series is classed as functional, organism-based. The settings on record: Human immunodeficiency virus 1, Cf2Th-CCR5.

Series [3] is described as follows: Modulation of capsid disassembly in HIV 1 NL4-3 infected in human C8166 cells expressing LTR-luciferase reporter gene assessed as inhibition of viral protein disassembly. The series is classed as functional, cell-based. The settings on record: Human immunodeficiency virus 1, NL4-3, C8166. On the technique in general: In a reporter assay the amount or activity of a reporter protein is the signal.

Series [4] has as its system Human immunodeficiency virus 1. Description: Antiviral activity against HIV 1 NL4-3 infected in human C8166 cells expressing LTR-luciferase reporter gene assessed as inhibition of viral replication pretreated with virus for 1.5 hrs followed by compound addition and measured after 3 days. In kind it is functional, organism-based. The settings on record: Human immunodeficiency virus 1, NL4-3, C8166.

Series [5] concerns Human immunodeficiency virus 1. Description: Antiviral activity against HIV 1 in human C8166 cells expressing LTR-luciferase reporter gene assessed as inhibition of viral replication incubated for 72 hrs by multiple-cycle viral replication assay. Conditions: Human immunodeficiency virus 1, C8166, 72 h. In kind it is functional, organism-based.
Series [6] deals with Human immunodeficiency virus 1. The series can be described thus: Antiviral activity against HIV 1 infected in human SUP-T1 cells assessed as inhibition of viral replication by measuring luciferase activity after 72 hrs by steady glo reagent based luminescence assay. The series is classed as functional, organism-based. Conditions: Human immunodeficiency virus 1, SUP-T1, 72 h.

Series [7] relates to Human immunodeficiency virus 1. The series can be described thus: Antiviral activity against HIV 1 NL4-3. In kind it is functional, organism-based. The settings on record: Human immunodeficiency virus 1, NL4-3.
Series [8] concerns Human immunodeficiency virus 1. Description: Antiviral activity against HIV 1 NL4-3 infected in […] MT2 cells assessed as reduction in luciferase activity incubated for 4 to 5 days. In kind it is functional, organism-based. Conditions: Human immunodeficiency virus 1, NL4-3, MT2.
Series [9] in a line: Metabolic stability in C57Bl/6 mouse liver microsomes assessed as half life by LC-MS/MS analysis. The series is classed as ADME, Microsome. (In general: Microsomes from liver hold many membrane-bound enzymes, among them those of drug oxidation.)
For series [10], the system named is Human immunodeficiency virus 1. The series can be described thus: Antiviral activity against HIV 1. In kind it is functional, organism-based.
The test system of series [11] is Human immunodeficiency virus 2. The series can be described thus: Antiviral activity against HIV 2. In kind it is functional, organism-based.
The next series concerns TZM. Description: Cytotoxicity against human TZM-bl cells assessed as reduction in cell viability incubated for 1 day by CytoTox-Glo stain based assay. In kind it is functional. The settings on record: 24 h.
Series [12] concerns Human immunodeficiency virus 1. Description: Antiviral activity against HIV 1 infected in human TZM-bl cells by MTT assay. The series is classed as functional, organism-based. The settings on record: Human immunodeficiency virus 1, TZM-bl.
Series [13] concerns Human immunodeficiency virus 1. Description: Antiviral activity against HIV 1 infected in human PBMC cells assessed as viral inhibition incubated for 7 days with media replacement for every 3 days by ELISA. In kind it is functional, organism-based. The settings on record: Human immunodeficiency virus 1, PBMC.
For series [14], the system named is Human immunodeficiency virus 1. The series can be described thus: Antiviral activity against HIV 1 infected in HeLa cells transfected with CD4,[…] and LacZ gene assessed as reduction in viral replication measured after 72 hrs by ELISA. The series is classed as functional, organism-based. Conditions: Human immunodeficiency virus 1, HeLa.
Series [15] addresses Structural capsid protein (Human immunodeficiency virus 1, UniProt Q76129). Description: Inhibition of HIV 1 capsid CTD dimerization incubated for 5 hrs by TR-FRET assay.
A further series has as its system MT4. Description: Cytotoxicity against […] MT4 cells. The series is classed as functional. Conditions: Homo sapiens.
Series [16] concerns Human immunodeficiency virus 1. The series can be described thus: Antiviral activity against HIV 1 infected in […] MT4 cells. In kind it is functional, organism-based. The settings on record: Human immunodeficiency virus 1, MT4.
The subject of series [17] is Human immunodeficiency virus 1. Description: Antiviral activity against HIV 1 assessed as log 10 reduction in viral load. In kind it is functional.

Chain of Structural capsid protein (Q76129 whole entry): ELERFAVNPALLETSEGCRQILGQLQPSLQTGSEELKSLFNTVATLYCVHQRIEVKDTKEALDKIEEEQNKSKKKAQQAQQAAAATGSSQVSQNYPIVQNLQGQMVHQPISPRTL

Broadly, the EC50 is the concentration at which the effect is half-maximal. In the case of `Cc1[nH]c2ccccc2c1CC(=O)N[C@@H](Cc1ccccc1)C(=O)N(C)c1ccccc1`, the EC50 in series [1] worked out at 570 nM.
A word on the IC50: it is the point on the concentration scale where inhibition reaches its midpoint. Consider `O=C(O)c1ccc(-c2nc(-c3ccccc3)c(-c3ccccc3)[nH]2)cc1`, for which the IC50 in [2] stood at 22500 nM.
Consider `CCc1cc(-c2ccc(C(F)(F)F)o2)n(-c2ccc3c(c2)nc(-c2cc(C(=O)N4CCCC4)ccc2O)n3Cc2ccc(=O)[nH]c2)n1`, for which, in [3], the IC50 came to 61 nM. The concentration giving a half-maximal response (EC50) in [4] was 62 nM.
As for `O=C1NC(c2cccnc2)c2c(-c3ccccc3)n[nH]c21` (stereo not given), the concentration for a half-maximal effect (EC50) in [5] stood at 1400 nM; in [6] it was 1800 nM.
In the case of `O=C(O)c1ccc(-c2ccc3c(c2)nc(-c2c[nH]nc2-c2cccc(Cl)c2)n3CCCn2ccnc2)cc1`, in series [7], the midpoint of inhibition, the IC50, lay at 57000 nM.
Regarding `Cn1nc(NS(C)(=O)=O)c2cccc(-n3c([C@H](Cc4cc(F)cc(F)c4)NC(=O)Cn4nc(C(F)F)c5c4C(F)(F)[C@H]4C[C@@H]54)nc4cc(-c5ncccn5)ccc4c3=O)c21`, the concentration giving a half-maximal response (EC50) in series [8] amounted to 0.025 nM.
As a reminder, the half-life is the time needed for the level to fall by half in the phase considered. Turning to `CC(C)(C#Cc1ccc(-c2ccc(Cl)c3c(NS(=O)(=O)C4CC4)nn(CC(F)(F)F)c23)c([C@H](Cc2cc(F)cc(F)c2)NC(=O)Cn2nc(C(F)(F)F)c3c2C(F)(F)[C@@H]2C[C@H]32)n1)S(C)(=O)=O`, the half-life in series [9] was 7.2 h. Besides, the EC50 in series [10] and in [11] was 0.14 nM each time.
On to `O=C(O)c1ccc(-c2nc(-c3ccc4oc5ccc(-c6nc(-c7ccc(C(=O)O)cc7)[nH]c6-c6ccccc6)cc5c4c3)c(-c3ccccc3)[nH]2)cc1`, for which the 50% inhibitory concentration (IC50) in series [2] came to 33300 nM.
Broadly, the CC50 is the concentration that lowers cell viability or growth by half. With `COc1ccc(N(C)C(=O)[C@H](Cc2cc(F)cc(F)c2)NC(=O)c2cccc(-c3cn(-c4ccc([N+](=O)[O-])cc4)nn3)c2)cc1`, the half-maximal cytotoxic concentration (CC50) with TZM is more than 35500 nM. The compound further showed a concentration for a half-maximal effect (EC50) in [12] of 2130 nM.
For `CCCCC[C@](C)(NC(=O)[C@H](CC(C)C)NC(=O)[C@H](CC(C)C)NC(=O)[C@H](CC(=O)O)NC(=O)[C@](C)(CCCCC)NC(=O)[C@H](Cc1ccccc1)NC(=O)[C@@H](NC(=O)[C@@H](N)[C@@H](C)CC)[C@@H](C)O)C(=O)N[C@@H](Cc1ccc(O)cc1)C(=O)N[C@@H](Cc1ccc(O)cc1)C(=O)NCC(=O)N1CCC[C@H]1C(=O)O`, in series [13], the 50% inhibitory concentration (IC50) was 4000 nM.
As to `O=c1c2ccccc2[se]n1-c1ccccc1` [EBSELEN], in series [14], the concentration for a half-maximal effect (EC50) turned out to be 4250 nM. In [15], this compound returned an IC50 of 46.7 nM.
Consider `CC(C)(C#Cc1ccc(-c2ccc(Cl)c3c(NS(C)(=O)=O)nn(CC(F)(F)F)c23)c([C@H](Cc2cc(F)cc(F)c2)NC(=O)Cn2nc(C(F)(F)F)c3c2C(F)(F)[C@@H]2C[C@H]32)n1)S(C)(=O)=O` [LENACAPAVIR], for which the CC50 in the series with MT4 is 27000 nM. Moreover, the response in series [16] was half-maximal at 0.1 nM (EC50). In addition, the “log(activity)” value in series [17] worked out at 0.5.

The record behind these values is ChEMBL document CHEMBL5096168, “An insight on medicinal aspects of novel HIV-1 capsid protein inhibitors” (Eur J Med Chem, 2021).
